Tests used:
[1] = assay type: in vivo, C57BL/6J mice
Description: Germfree mice were colonized with the wildtype and mutant strains. BRV was administered.
Individually caged GF C57BL/6J mice are colonized by oral gavage with 200 μL of an overnight GMM culture of either B. thetaiotaomicron wild type or bt4554 strains to generate GN^WT or GN^MUT mice, respectively. After 4 days, bacterial loads are determined by CFU plating on BHI blood agar prior to drug treatment.
(§1) Each drug treatment is performed using 20 treated and 5 to 6 untreated animals. Both genders are equally represented in each group and evenly distributed across the different time points for sample collection. Animals (n=5 per time point and group) are given 100 mg/kg body weight of BRV or SRV as suspensions in PBS (200 μL PBS for controls) by oral gavage. One blood sample is collected from each animal at an early time point (0.5, 1, 1.5, or 2 hours after drug administration) by submandibular bleeding. At 3, 5, 7, and 9 h, mice are sacrificed and tissue samples are collected into sample tubes and snap-frozen. Fecal samples are collected before euthanization and re-suspended in PBS (1 mL) through vigorous shaking. 20 μL are then plated on BHI blood plates and incubated aerobically and anaerobically at 37° C. to check GF, GN^WT, and GN^MUT animals for contamination. Monocolonized mice are also checked for contamination by PCR using primers 7 and 8.

[2] = Oral BRV in conventional (CV) and germfree (GF) mice, drug and metabolite levels; assay type: in vivo, C57BL/6 mice
Description: Oral BRV was administered to conventional (CV) and germfree (GF) C57BL/6 mice, and BRV and BVU concentrations were measured over time along the length of the gastrointestinal tract as shown in FIG. 4C. Serum kinetics of BRV and BVU in conventional (CV) and germ-free (GF) mice were compared following oral BRV administration.
All experiments using mice are performed using protocols approved by the Yale University Institutional Animal Care and Use Committee. Germfree (GF) 8 to 12 week old C57BL/6J mice are maintained in flexible plastic gnotobiotic isolators with a 12-hour light/dark cycle and GF status monitored by PCR and culture-based methods. Conventional C57BL/6J mice (Jackson Laboratories) are purchased at the age of 6-7 weeks and kept in the lab for 2-3 weeks before experiments. All mice are provided a standard, autoclaved mouse chow (5013 LabDiet, Purina) ad libitum.
as §1
200 μL of 0.1 mm zirconia/silica beads (BioSpec Products) and 500 μL of organic solvent (acetonitrile:methanol, 1:1) supplemented with internal standard are added to 50-350 mg of pre-weighed solid material. Material is homogenized by mechanical disruption with a bead beater (BioSpec Products) set for 2 minutes on high setting at room temperature. After incubation for at least 1 h at −20° C., samples are centrifuged (3220 rcf, −9° C.) for 15 min. 10 μL of supernatant are diluted with 10 μL H2O for analysis by LC-MS.
Samples for LS-MS analysis are prepared as described above. Chromatographic separation is performed on a C18 Kinetex Evo column (Phenomenex, 100 mm×2.1 mm, […]) using mobile phase A: H2O, 0.1% formic acid and B: methanol, 0.1% formic acid at 45° C. 5 μL of sample are injected at 100% A and 0.4 mL/min flow followed by a linear gradient to 95% B over 5.5 min and 0.4 mL/min flow leading to thymine, BVU, SRV, and BRV elution at 0.95, 2.0, 2.15, and 2.4 min, respectively. The internal standards caffeine and sulfamethoxazole elute at 1.9 and 2.1 min, respectively. The qTOF is operated in positive scanning mode (50-1000 m/z) and the following source parameters: VCap is 3500 V; nozzle voltage is 2000 V; gas temp is 225 C; drying gas 13 L/min; nebulizer is 20 psig; sheath gas temp is 225 C; and sheath gas flow is 12 L/min. Online mass calibration is performed using a second ionization source and a constant flow (5 μL/min) of reference solution (121.0509 and 922.0098 m/z). Compounds are identified based on the retention time of chemical standards and their accurate mass (tolerance 20 ppm).

[3] = Physiologically based multi-compartment pharmacokinetic model; parameters: species or system mouse; details: GN^WT mice, oral BRV
Description: These quantitative measurements of drug and metabolite levels, collected over time, were used in various compartments, and in the presence and absence of microbial drug metabolism, to build the predictor module 130 which implements a physiologically based pharmacokinetic model to predict the levels and source of systemic drug and metabolite exposure over time, and quantify the contribution of host and microbiota to systemic drug and metabolite exposure. First, to parameterize processes independent from microbial BRV metabolism (grey compartments in FIG. 19A), a global optimization procedure was used to fit measured BRV and BVU kinetics in serum and intestinal compartments of GN^MUT mice. […]
Measured BRV and BVU kinetics in serum and intestinal compartments of GN^MUT mice were used to parameterize processes independent from bacterial BRV conversion (grey compartments as illustrated in FIG. 19A) using the global optimization procedure to best fit the measured data. […]
To parameterize processes dependent on microbial BRV metabolism (green compartments in FIG. 19A), including bacterial BRV to BVU conversion (kc^B) and BVU absorption rates from cecum and colon (KaLI1^M and kaLI2^M), measured BRV and BVU kinetics in cecum and colon (but not serum) of GN^WT mice, as illustrated in FIGS. 19C and 20A, are used. […]

O=c1[nH]cc(/C=C/Br)c(=O)[nH]1 [BVU, bromovinyluracil]
serum BVU levels ([1]; GN^WT compared to GN^MUT mice): significantly higher
absorption of BVU from cecum and colon ([1]; GN^WT mice): almost entirely absorbed
BVU levels in the liver ([1]; GN^WT mice after BRV administration): increased BVU levels
BVU concentrations in the liver ([2]; CV compared to GF mice, oral BRV): increased
BVU intestinal concentrations ([2]; CV mice compared to GF controls, oral BRV): increased intestinal concentrations
concentrations of BVU in serum ([2]; CV versus GF mice, later timepoints after oral BRV): significantly higher
microbial share of total BVU exposure in serum (area under the curve) [3]: 77%

Reference: patent US20210183467A1, “SYSTEM AND METHOD FOR USING MICROBIOME TO DE-RISK DRUG DEVELOPMENT” (YALE UNIVERSITY, priority 2018, published 2021)
